Results published in PubChem BioAssay AID2060885 (Molecular Pharmacology Branch, DTP, NCI, 2025).

Test system: NCI-H23 complex spheroids with HUVEC/MSC, viability
Assay: Anticancer human tumor NCI-H23 cell line growth inhibition [RAS];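 for viability, T/C: 100% = DMSO vehicle control viability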
Conditions: for IC50: curve of first compound; for viability, T/C: stronger effect = lower value
Description: RAS pathway inhibitors in Combinations in Complex Spheroids
A high-throughput screen of multi-cell type tumor spheroids was designed to identify active combinations of RAS pathway inhibitors and targeted small molecules. Complex spheroids include a stromal component modeled by human endothelial cells (HUVEC) and fibroblasts modeled by human mesenchymal stem cells (MSCs). The concentration ranges selected for each drug and investigational agent were based upon clinically achievable concentrations if the clinical Cmax of the agent was known.
Compounds. The drugs and investigational agents: abemaciclib (NSC768073), cobimetinib (NSC768068), divarasib (GDC6063, NSC841802), docetaxel (NSC628503), GDC-1971 (RLY-1971, NSC841576), gemcitabine (NSC613327), inavolisib (NSC800729), ipatasertib (NSC767898), KB-0742 (NSC834161), MRTX-1133 (NSC836407), osimertinib (NSC779217), RMC-4630 (NSC839698), RMC-6236 (NSC851965), RMC-6291 (NSC852671), Ro-3306 (NSC812927), sapanisertib (NSC764658), SN-38 (NSC673596), staurosporine (NSC755774), SY5609 (NSC837396), and tovorafenib (DAY101, NSC766906), were obtained from the National Cancer Institute (NCI) Developmental Therapeutics Program Chemical Repository. The FDA-approved anticancer drug set is available from the NCI Developmental Therapeutics Program. […] The stock solutions were prepared in dimethyl sulfoxide (DMSO, Sigma-Aldrich, St. Louis, MO, cat. D2650) at 800-fold the tested concentration and stored at -70 degrees C prior to their use. All drugs and investigational agents were tested over a range starting from a high concentration at or near the clinical Cmax and decreasing in half-log increments. If the clinical Cmax for an agent had not been determined, the highest concentration tested was 10 microM.
Cell Culture. All cells were maintained in an incubator at 37 degrees C and 5% CO2 with 95% humidity. The PDC lines were cultured according to standard operating procedures established by the NCI PDMR. All PDCs were thawed and cultured in Matrigel-coated flasks prepared with a working solution of 1X Ham's F-12 nutrient mix, without supplementation (Invitrogen, Waltham, MA, cat. 11765054), 100 U/mL penicillin-streptomycin (Invitrogen, cat. 15140122), and 2.5% Matrigel (Corning Inc., Corning, NY, cat. 354248) for the first three passages. The 362531-283-R-J2-PDC and 782815-120-R-J1-PDC lines were cultured in 6C/Colon 1B media, which includes advanced DMEM/F-12 (Thermo Fisher Scientific, cat. 12634028), 10 mM HEPES (Thermo Fisher Scientific, cat. 15630080), 1X GlutaMAX supplement (Thermo Fisher Scientific, cat. 35050061), 0.1 mg/mL primocin (InvivoGen, San Diego, CA, cat. ant-pm-2), 10% defined fetal bovine serum, heat inactivated (HyClone Laboratories Inc., Logan, UT, cat. SH30070.03HI), 50% L-WRN conditioned media (ATCC, cat. CRL-3276), 1.25 mM N-Acetyl-L-cysteine (Sigma-Aldrich, cat. A9165), 10 mM nicotinamide (Sigma-Aldrich, cat. N0636), 1X B-27 supplement (Thermo Fisher Scientific, cat. 17504044), 1X N-2 supplement (Thermo Fisher Scientific, cat. 17502048), 50 ng/mL human EGF (Thermo Fisher Scientific, cat. PHG0311), and 10 microM Y-27632 dihydrochloride (Tocris Bioscience, cat. 1254). The K12877-001-R-J1-PDC line was cultured in 6I media, which includes all 6C/Colon 1B media plus 10 ng/mL human FGF-10 (PeproTech, cat. 100-26), 1 ng/mL human FGF-2 (PeproTech, cat. 100-18B), 1 µM prostaglandin E2 (Tocris Bioscience, cat. 2296), […] hydrocortisone (Sigma-Aldrich, cat. H4001), and […] bovine insulin (Sigma-Aldrich, cat. I6634). The K86415-001-R-J1-PDC line was cultured in 6D media, which includes all 6C/Colon 1B media components minus the L-WRN conditioned media. The 485176-168-R4-J1-PDC was cultured in PANC media, which includes all 6C/Colon 1B media plus 100 ng/mL human FGF-10 (PeproTech, cat. 100-26), 500 nM SB-431542 (Selleckchem, cat. S1067), and 10 nM gastrin (Tocris Bioscience, cat. 3006). […]

[1] = second compound 0.0316 µM, first compound 0.0316 µM
[2] = second compound 0.0316 µM, first compound 0.1 µM
[3] = second compound 0.0316 µM, first compound 0.316 µM
[4] = second compound 0.0316 µM, first compound 1 µM
[5] = second compound 0.1 µM, first compound 0.0316 µM
[6] = second compound 0.1 µM, first compound 0.1 µM
[7] = second compound 0.1 µM, first compound 0.316 µM
[8] = second compound 0.1 µM, first compound 1 µM
[9] = second compound 0.316 µM, first compound 0.0316 µM
[10] = second compound 0.316 µM, first compound 0.1 µM
[11] = second compound 0.316 µM, first compound 0.316 µM
[12] = second compound 0.316 µM, first compound 1 µM
[13] = second compound 1 µM, first compound 0.0316 µM
[14] = second compound 1 µM, first compound 0.1 µM
[15] = second compound 1 µM, first compound 0.316 µM
[16] = second compound 1 µM, first compound 1 µM
[17] = second compound 3.16 µM, first compound 0.0316 µM
[18] = second compound 3.16 µM, first compound 0.1 µM
[19] = second compound 3.16 µM, first compound 0.316 µM
[20] = second compound 3.16 µM, first compound 1 µM
[21] = second compound 10 µM, first compound 0.0316 µM
[22] = second compound 10 µM, first compound 0.1 µM
[23] = second compound 10 µM, first compound 0.316 µM
[24] = second compound 10 µM, first compound 1 µM

CCC(CC)c1cc(NC2CCC(N)C2)n2nccc2n1 (centres undefined) + C#Cc1c(F)ccc2cc(O)cc(-c3ncc4c(N5CC6CCC(C5)N6)nc(OCC56CCCN5CC(F)C6)nc4c3F)c12
IC50 (second compound 0.0316 µM): 1.8 µM
IC50 (second compound 0.1 µM): 1.78 µM
IC50 (second compound 0.316 µM): 1.68 µM
IC50 (second compound 1 µM): 1.44 µM
IC50 (second compound 3.16 µM): 1.11 µM
IC50 (second compound 10 µM): < 0.0316 µM
viability, T/C [1]: 102%
viability, T/C [2]: 129%
viability, T/C [3]: 99.8%
viability, T/C [4]: 89.4%
viability, T/C (second compound 0.0316 µM, first compound 3.16 µM): 12.8%
viability, T/C (second compound 0.0316 µM, first compound 10 µM): 1.4%
viability, T/C [5]: 109%
viability, T/C [6]: 127%
viability, T/C [7]: 104%
viability, T/C [8]: 90.9%
viability, T/C (second compound 0.1 µM, first compound 3.16 µM): 9.22%
viability, T/C (second compound 0.1 µM, first compound 10 µM): 1.06%
viability, T/C [9]: 113%
viability, T/C [10]: 128%
viability, T/C [11]: 98.9%
viability, T/C [12]: 83.1%
viability, T/C (second compound 0.316 µM, first compound 3.16 µM): 10.2%
viability, T/C (second compound 0.316 µM, first compound 10 µM): 1.06%
viability, T/C [13]: 108%
viability, T/C [14]: 121%
viability, T/C [15]: 92%
viability, T/C [16]: 71.6%
viability, T/C (second compound 1 µM, first compound 3.16 µM): 9.15%
viability, T/C (second compound 1 µM, first compound 10 µM): 0.7%
viability, T/C [17]: 76.2%
viability, T/C [18]: 70.1%
viability, T/C [19]: 57.7%
viability, T/C [20]: 55.3%
viability, T/C (second compound 3.16 µM, first compound 3.16 µM): 5.85%
viability, T/C (second compound 3.16 µM, first compound 10 µM): 0.62%
viability, T/C [21]: 36.7%
viability, T/C [22]: 45.5%
viability, T/C [23]: 41.9%
viability, T/C [24]: 37.9%
viability, T/C (second compound 10 µM, first compound 3.16 µM): 3.49%
viability, T/C (second compound 10 µM, first compound 10 µM): 1.1%

CCN1CCN(Cc2ccc(Nc3ncc(F)c(-c4cc(F)c5nc(C)n(C(C)C)c5c4)n3)nc2)CC1 + C#Cc1c(F)ccc2cc(O)cc(-c3ncc4c(N5CC6CCC(C5)N6)nc(OCC56CCCN5CC(F)C6)nc4c3F)c12
IC50 (second compound 0.0316 µM): > 1 µM
IC50 (second compound 0.1 µM): > 1 µM
IC50 (second compound 0.316 µM): 0.0895 µM
IC50 (second compound 1 µM): 0.0562 µM
IC50 (second compound 3.16 µM): 0.0122 µM
IC50 (second compound 10 µM): < 0.00316 µM
viability, T/C (second compound 0.0316 µM, first compound 0.00316 µM): 105%
viability, T/C (second compound 0.0316 µM, first compound 0.01 µM): 102%
viability, T/C [1]: 79%
viability, T/C [2]: 61.8%
viability, T/C [3]: 61.2%
viability, T/C [4]: 60.9%
viability, T/C (second compound 0.1 µM, first compound 0.00316 µM): 104%
viability, T/C (second compound 0.1 µM, first compound 0.01 µM): 108%
viability, T/C [5]: 70%
viability, T/C [6]: 56.8%
viability, T/C [7]: 50.9%
viability, T/C [8]: 52.2%
viability, T/C (second compound 0.316 µM, first compound 0.00316 µM): 94.2%
viability, T/C (second compound 0.316 µM, first compound 0.01 µM): 109%
viability, T/C [9]: 71.8%
viability, T/C [10]: 51.4%
viability, T/C [11]: 48.4%
viability, T/C [12]: 43.3%
viability, T/C (second compound 1 µM, first compound 0.00316 µM): 81.2%
viability, T/C (second compound 1 µM, first compound 0.01 µM): 75%
viability, T/C [13]: 56.6%
viability, T/C [14]: 42.6%
viability, T/C [15]: 40.4%
viability, T/C [16]: 34.7%
viability, T/C (second compound 3.16 µM, first compound 0.00316 µM): 54.5%
viability, T/C (second compound 3.16 µM, first compound 0.01 µM): 53.3%
viability, T/C [17]: 37.9%
viability, T/C [18]: 29%
viability, T/C [19]: 30%
viability, T/C [20]: 22.8%
viability, T/C (second compound 10 µM, first compound 0.00316 µM): 30.3%
viability, T/C (second compound 10 µM, first compound 0.01 µM): 39.5%
viability, T/C [21]: 26.5%
viability, T/C [22]: 21.1%
viability, T/C [23]: 22.2%
viability, T/C [24]: 21%
